# Assay results taken from the PolyMetriX glass transition set.
# ± gives the standard deviation of the reports.
row,glass transition temperature [°C],Structure (SMILES)
1,180.00,*Oc1ccc(C(C)(C)c2ccc(OC(=O)c3ccc([Si](C)(C)c4ccc(C(*)=O)cc4)cc3)cc2)cc1 (repeat unit)
2,-13.00,*CCCCCCOC(=O)OCCCCCCOC(=O)OCCCCCCOc1ccc(Oc2ccc(O*)cc2)cc1 (repeat unit)
3,253.00,*C(=O)c1ccc2c(c1)/C(=N\c1ccc(Oc3cccc(/N=C4/OC(=O)c5ccc(*)cc54)c3)cc1)OC2=O (repeat unit)
4,27.00,*CC(F)(F)C(F)(F)C(F)(F)COC(=O)c1cc(C(=O)O*)cc(C(F)(F)C(F)(F)C(F)(F)C(F)(F)C(F)(F)C(F)(F)C(F)(F)F)c1 (repeat unit)
5,227.00,*C(=O)Nc1ccc(Oc2ccccc2-c2ccccc2Oc2ccc(NC(=O)c3ccc4c(c3)C(=O)N(c3ccc(Oc5ccccc5-c5ccccc5Oc5ccc(N6C(=O)c7ccc(*)cc7C6=O)cc5)cc3)C4=O)cc2)cc1 (repeat unit)
6,75.00,*CC(*)(C)C(=O)OC(C(F)(F)F)C(F)(F)F (repeat unit)
7,231.00,*Oc1ccc(C2(c3ccc(Oc4ccc(C(=O)c5ccc(Oc6ccc(C(=O)c7ccc(*)cc7)cc6)cc5)cc4)cc3)c3ccccc3-c3ccccc32)cc1 (repeat unit)
8,-5.00,*C/C=C/C[Si](*)(CCCOc1ccccc1)c1ccccc1 (repeat unit)
9,254.00,*CC(=O)Nc1cccc(NC(=O)COc2ccc3ccccc3c2Sc2c(O*)ccc3ccccc23)c1 (repeat unit)
10,110.00,*Oc1ccc(S(=O)(=O)c2ccc(Oc3ccc(/N=C/c4ccc(*)cc4)cc3)cc2)cc1 (repeat unit)
11,167.00,*/C=C/c1ccc(/C=C/c2ccc3c(c2)Sc2cc(*)ccc2N3c2ccc(OCCCCCCCCCCCC)cc2)cc1 (repeat unit)
12,33.50,*Oc1ccc(C(C)(C)c2ccc(OC(=O)CCCCC(*)=O)c(C)c2)cc1C (repeat unit)
13,-10.00,*C(F)(F)C(*)(F)OC(F)(F)C(F)(F)C(F)(F)C(F)(F)F (repeat unit)
14,-11.00,*CCCCCCCCCOC(=O)C(O)C(O)C(=O)O* (repeat unit)
15,281.00,*Oc1c(Cl)cc(C2(c3cc(Cl)c(OC(*)=O)c(Cl)c3)CC3CC2C2CCCC32)cc1Cl (repeat unit)
16,101.00,*C(F)(F)C1(F)C(F)(F)C(*)(F)C(F)(F)C(F)(F)C1(F)F (repeat unit)
17,217.00,*c1ccc(Cc2ccc(N3C(=O)c4ccc(Oc5ccc(C(C)(C)c6ccc(Oc7ccc8c(c7)C(=O)N(*)C8=O)cc6)cc5)cc4C3=O)cc2)cc1 (repeat unit)
18,248.00,*Oc1c(C)cc(C(C)(C)c2cc(C)c(ON3C(=O)c4ccc(Oc5ccc(C6(c7ccc(Oc8ccc9c(c8)C(=O)N(*)C9=O)cc7)CCC(C(C)(C)C)CC6)cc5)cc4C3=O)c(C)c2)cc1C (repeat unit)

row,glass transition temperature [°C],Structure (SMILES)
1,67.10,*CCC1C(=O)N(CCCCCCCCCCCCCCCCCC)C(=O)C1* (repeat unit)
2,149.00,*CCN(CCOC(=O)c1ccc(C(=O)O*)cc1)c1ccc(/N=N/c2ccc(-c3nc4ccc([N+](=O)[O-])cc4n3CC)cc2)cc1 (repeat unit)
3,162.00,*Oc1ccc(C(C)(C)c2ccc(Oc3ccc(C(=O)c4ccc(Oc5ccc(C(=O)c6ccc(*)cc6)cc5)cc4)cc3)cc2)cc1 (repeat unit)
4,147.00,*Oc1ccc(C(=O)c2cccc(C(=O)c3ccc(*)c(C(C)C)c3)c2)cc1C (repeat unit)
5,233.00,*Oc1c(C)cc(-c2cc(C)c(Oc3ccc(C(=O)c4ccccc4-c4ccccc4C(=O)c4ccc(*)cc4)cc3)c(C)c2)cc1C (repeat unit)
6,389.00,*c1ccc(-c2cc(C(C)(C)C)c(Oc3ccc(N4C(=O)c5ccc(-c6ccc7c(c6)C(=O)N(*)C7=O)cc5C4=O)cc3C(F)(F)F)c(C(C)(C)C)c2)cc1 (repeat unit)
7,222.00,*c1ccc(Oc2ccc(Oc3ccc(N4C(=O)c5ccc(Oc6ccc(-c7ccc(Oc8ccc9c(c8)C(=O)N(*)C9=O)cc7)cc6)cc5C4=O)cc3)cc2)cc1 (repeat unit)
8,264.00,*Oc1ccc(S(=O)(=O)c2ccc(-c3ccc(-c4ccc(S(=O)(=O)c5ccc(Oc6ccc(-c7ccc(*)cc7)cc6)cc5)cc4)cc3)cc2)cc1 (repeat unit)
9,178.00,*Nc1cccc2c(NC(=O)Nc3cc(NC(*)=O)cc(C(=O)Nc4ccc5c(c4)C(=O)c4ccccc4C5=O)c3)cccc12 (repeat unit)
10,281.00,*c1ccc(Oc2ccc(C(=O)c3ccc4cc(C(=O)c5ccc(Oc6ccc(-c7nc(-c8ccc(-c9nc(*)c(-c%10ccccc%10)[nH]9)cc8)[nH]c7-c7ccccc7)cc6)cc5)ccc4c3)cc2)cc1 (repeat unit)
11,275.00,*C(=O)Nc1ccc(S(=O)(=O)c2ccc(NC(=O)c3ccc4c(c3)C(=O)N(c3ccc(Oc5ccc(N6C(=O)c7ccc(*)cc7C6=O)cc5)cc3)C4=O)cc2)cc1 (repeat unit)
12,0.00,*CCOC(=O)C1C2C=CC(C2)C1C(=O)O* (repeat unit)
13,260.00,*c1ccc2c(c1)C(=O)N(c1cccc(C(C)(C)c3ccc(N4C(=O)c5ccc(C(*)(C(F)(F)F)C(F)(F)F)cc5C4=O)cc3)c1)C2=O (repeat unit)
14,56.00,*CCCCOc1ccc(OC(=O)c2ccc(C(=O)Oc3ccc(O*)cc3)c(C(=O)OCC=C)c2)cc1 (repeat unit)
15,96.40,*CCCCCCCCCn1c2ccccc2c2cc(/C=C(\C#N)C(=O)OCCCCCCOC(=O)/C(C#N)=C/c3ccc4c(c3)c3ccccc3n4*)ccc21 (repeat unit)
16,219.00,*c1cccc(Oc2cccc(Oc3cccc(N4C(=O)c5ccc(Oc6ccc7c(c6)C(=O)N(*)C7=O)cc5C4=O)c3)c2C#N)c1 (repeat unit)
17,259.00,*Oc1cccc2ccc(Oc3ccc(NC(=O)c4ccc(S(=O)(=O)c5ccc(C(=O)Nc6ccc(*)cc6)cc5)cc4)cc3)cc12 (repeat unit)

# More lines, now with the values behind:
row,Structure (SMILES),glass transition temperature [°C]
1,*CCCCCCCCOc1ccc(/C=C2\CC/C(=C\c3ccc(OCCCCCCCCOP(=O)(O*)OCC)c(OC)c3)C2=O)cc1OC (repeat unit),62.00
2,*CCCCCCCOC(=O)Nc1ccc(Cc2ccc(NC(=O)O*)cc2)cc1 (repeat unit),84.00
3,*Oc1ccc(NC(=O)c2ccc(C(=O)Nc3ccc(*)cc3)cc2)cc1 (repeat unit),240.50
4,*O[Si](*)(C)CCCOCCOCCOC (repeat unit),-90.10
5,*Oc1ccc(C(C)(C)c2ccc(Oc3ccc(C(O)C(O)c4ccc(*)cc4)cc3)cc2)cc1 (repeat unit),151.00
6,*Cc1ccc(CO*)cc1 (repeat unit),217.00
7,*Cc1ccccc1[Si](*)(c1ccccc1)c1ccccc1 (repeat unit),122.00
8,*CCCCCCCCOc1ccc(/C=C2\CC/C(=C\c3ccc(OCCCCCCCCOP(=O)(O*)OC)c(OC)c3)C2=O)cc1OC (repeat unit),73.00
9,*=Nc1ccc(Oc2ccc(C(c3ccc(Oc4ccc(/N=C5/OC(=O)c6cc7c(cc65)C(=*)OC7=O)cc4)cc3)(C(F)(F)F)C(F)(F)F)cc2)cc1 (repeat unit),287.00
10,*Cc1ccc(CSSSS*)cc1 (repeat unit),3.00
11,*CC(*)c1ccc(C(C)=O)cc1 (repeat unit),115.50
12,*CCCCCCOc1ccc(/C=C2\CC/C(=C\c3ccc(OCCCCCCOP(=O)(O*)OC)c(OC)c3)C2=O)cc1OC (repeat unit),74.00
13,*CNC(=O)CCCCCCCCC(=O)NCC1COC(*)CO1 (repeat unit),73.00
14,*/C(F)=C(\F)C(F)(C(*)(F)F)C(F)(F)F (repeat unit),-3.00
15,*CC(*)OC(=O)c1ccc(OC)cc1 (repeat unit),86.50
16,*ON(C(F)(F)C(*)(F)F)C(F)(F)C(F)(F)Br (repeat unit),-17.00

row,Structure (SMILES),glass transition temperature [°C]
1,*C(=O)Nc1ccc(Cc2ccc(NC(=O)c3ccc4c(c3)C(=O)N(c3ccc(Oc5ccc(N6C(=O)c7ccc(*)cc7C6=O)cc5)cc3)C4=O)cc2)cc1 (repeat unit),270.00
2,*C(=O)c1ccc2c(c1)C(=O)N(c1ccc(CP(=O)(OCC)OCC)c(N3C(=O)c4ccc(*)cc4C3=O)c1)C2=O (repeat unit),218.00
3,*CC(*)c1ccc(C(=O)OC(C)C)cc1 (repeat unit),95.00
4,*CC(OCC)C(C(=O)OC)C(*)C(=O)OC (repeat unit),50.00
5,*N=P(N=P(N=S(*)(=O)NCCC)(NCCC)NCCC)(NCCC)NCCC (repeat unit),6.00
6,*C(=O)OCCCSCCCCSCCCOC(=O)c1ccc(N2C(=O)c3ccc(*)cc3C2=O)cc1 (repeat unit),39.00
7,*CC(O)CN(*)c1ccccc1 (repeat unit),78.50
8,*CC(*)C (repeat unit) [Poly(propylene)],-24.6 ± 21
9,*CC(*)CNc1ccc([N+](=O)[O-])cc1C (repeat unit),151.00
10,*c1cccc(Cc2cccc(N3C(=O)c4ccc([Si](C)(C)c5ccc6c(c5)C(=O)N(*)C6=O)cc4C3=O)c2)c1 (repeat unit),238.00
11,*c1[nH]c2ccccc2c1* (repeat unit),137.00
12,*CC(*)(Cl)C(=O)OCCC (repeat unit),66.00
13,*c1cccc(P(=O)(c2ccc(C(F)(F)F)cc2)c2cccc(-n3c(=O)c4cc5c(=O)n(*)c(=O)c5c(-c5ccccc5)c4c3=O)c2)c1 (repeat unit),311.00
14,*/C=C/C(*)(C)c1ccccc1 (repeat unit),52.00
15,*Nc1cccc(NC(=O)c2ccc(C(=O)Nc3ccc(C(=O)NC(*)=S)cc3)cc2)c1 (repeat unit),273.00
16,*CCN(*)C(=O)c1ccc(F)c(F)c1F (repeat unit),102.00
